For orientation: MIC means the lowest concentration found to suppress growth. For orientation: Kd means the free concentration of one partner at which half of the binding sites on the other are occupied at equilibrium, for simple one-to-one binding.

This is an account of results in PMC5321607 (ACS infectious diseases, 2016).

Some results are limits rather than exact numbers.

One assay relates to E. cloacae FADDI-EC006. The assay can be described thus: MIC by broth microdilution. In kind it is cell-based. As to conditions: CaMHB, 18 h, 37°C. On the technique in general: Broth dilution looks for growth in wells or tubes with falling amounts of substance.
Assay [1] deals with P. aeruginosa FADDI-PA090. The experiment in a line: MIC by broth microdilution. In kind it is cell-based. As to conditions: CaMHB, 18 h, 37°C.
Assay [2] concerns K. pneumoniae FADDI-KP027. The assay can be described thus: MIC by broth microdilution. In kind it is cell-based. As to conditions: CaMHB, 18 h, 37°C.
Another assay has as its system A. baumannii FADDI-AB156. The experiment in a line: MIC by broth microdilution. It counts as cell-based. As to conditions: CaMHB, 18 h, 37°C.
The subject of the next assay is A. baumannii FADDI-AB110. The assay can be described thus: MIC by broth microdilution. It counts as cell-based. The following applies: CaMHB, 18 h, 37°C.
In assay [3] the test system is P. aeruginosa FADDI-PA025. The assay can be described thus: MIC by broth microdilution. It counts as cell-based. The following applies: CaMHB, 18 h, 37°C.
In a further assay the test system is P. aeruginosa ATCC 27853. The experiment in a line: MIC by broth microdilution. It counts as cell-based. The following applies: CaMHB, 18 h, 37°C.
Assay [4] has as its system K. pneumoniae FADDI-KP032. The experiment in a line: MIC by broth microdilution. It counts as cell-based. The following applies: CaMHB, 18 h, 37°C.
The test system of assay [5] is K. pneumoniae FADDI-KP012. The experiment in a line: MIC by broth microdilution. In kind it is cell-based. The following applies: CaMHB, 18 h, 37°C.
In assay [6] the test system is P. aeruginosa FADDI-PA001. The assay can be described thus: MIC by broth microdilution. It counts as cell-based. As to conditions: CaMHB, 18 h, 37°C.
In assay [7] the target is anti-polymyxin B mouse IgM monoclonal antibody (clone 45). In kind it is binding. As to conditions: SPR; for Kd: Biacore T200, 25°C, HBS-EP+, 1:1 kinetic fit or steady-state.
The subject of a further assay is E. cloacae FADDI-EC001. The experiment in a line: MIC by broth microdilution. The following applies: CaMHB, 18 h, 37°C. In kind it is cell-based.
Another assay concerns E. cloacae FADDI-EC003. The assay can be described thus: MIC by broth microdilution. It counts as cell-based. As to conditions: CaMHB, 18 h, 37°C.
Assay [8] concerns P. aeruginosa FADDI-PA070. The assay can be described thus: MIC by broth microdilution. It counts as cell-based. As to conditions: CaMHB, 18 h, 37°C.
Assay [9] deals with P. aeruginosa FADDI-PA060. The experiment in a line: MIC by broth microdilution. It counts as cell-based. As to conditions: CaMHB, 18 h, 37°C.
The test system of assay [10] is K. pneumoniae FADDI-KP003. The experiment in a line: MIC by broth microdilution. In kind it is cell-based. As to conditions: CaMHB, 18 h, 37°C.
In a further assay the test system is A. baumannii ATCC 17978. The experiment in a line: MIC by broth microdilution. In kind it is cell-based. The following applies: CaMHB, 18 h, 37°C.
The next assay has as its system A. baumannii FADDI-AB167. The assay can be described thus: MIC by broth microdilution. It counts as cell-based. As to conditions: CaMHB, 18 h, 37°C.
The subject of the next assay is A. baumannii ATCC 19606. The experiment in a line: MIC by broth microdilution. It counts as cell-based. The following applies: CaMHB, 18 h, 37°C.

With “Octanoyl-Dab-Thr-Dab-Dab ^*-Dab-D-Leu-Leu-Dab-Dab-Thr ^* [Colistin]”, the MIC was less than 0.125 µg/mL in the assay with E. cloacae FADDI-EC006; 8 µg/mL in assay [1]; greater than 128 µg/mL in [2]; 16 µg/mL with A. baumannii FADDI-AB156; 0.5 µg/mL in the assay with A. baumannii FADDI-AB110; 2 µg/mL in [3]. Besides, the MIC was 1 µg/mL in the assay with P. aeruginosa ATCC 27853; 1 µg/mL in assay [4]; 32 µg/mL in assay [5]; 1 µg/mL in [6]; 0.25 µg/mL in the assay on E. cloacae FADDI-EC001; less than 0.125 µg/mL in the assay on E. cloacae FADDI-EC003. Further, the MIC was greater than 128 µg/mL in assay [8]; greater than 128 µg/mL in assay [9]; 128 µg/mL in assay [10]; 0.5 µg/mL against A. baumannii ATCC 17978; 8 µg/mL against A. baumannii FADDI-AB167; 1 µg/mL in the assay on A. baumannii ATCC 19606. This substance had a Kd in [7] of 560 nM. In addition, the “reduction in mAb binding affinity” value in assay [7] (compared to polymyxin B (FADDI-206/207: polymyxin B and colistin)) came to 2 fold.

For the substance “Octanoyl-Dab-Thr-Dab-Dab ^*-Dab-D-Phe-Leu-Dab-Dab-Thr ^* [Polymyxin B]”, the MIC in the assay with E. cloacae FADDI-EC006 is 0.5 µg/mL; in assay [1], 4 µg/mL; in [2], 128 µg/mL; against A. baumannii FADDI-AB156, 8 µg/mL; in the assay on A. baumannii FADDI-AB110 it was 0.5 µg/mL; in assay [3] it was 1 µg/mL. Further, the minimum inhibitory concentration (MIC) against P. aeruginosa ATCC 27853 was 1 µg/mL; in assay [4], less than 0.125 µg/mL; in assay [5], 16 µg/mL; in [6] it was 1 µg/mL; with E. cloacae FADDI-EC001 it was 0.25 µg/mL; against E. cloacae FADDI-EC003, 0.5 µg/mL. The MIC is 32 µg/mL in [8]; greater than 32 µg/mL in [9]; greater than 32 µg/mL in assay [10]; 1 µg/mL against A. baumannii ATCC 17978; 16 µg/mL with A. baumannii FADDI-AB167; 1 µg/mL against A. baumannii ATCC 19606. The substance further had a Kd in assay [7] of 260 nM.
